The values that follow come from article PMC3144920, “Peptide Substrates for Rho-Associated Kinase 2 (Rho-Kinase 2/ROCK2)” (PLoS ONE, 2011).

What all share (format): biochemical
The target in assay [1] is T1, ROCK2 (Homo sapiens, UniProt O75116).
T1 construct: purchased Carna Biosciences, Kobe, Japan
The assay can be described thus: Inhibition of ROCK2 phosphorylation of S6K substrate peptide by inhibitor peptides. To be noted: competitive; S6K peptide (KRRRLASLR) as substrate, 1.25 µg/mL ROCK2, 100 µM ATP, MOPS pH 7.2; Dixon plot and Lineweaver–Burk plot. As to the method: The phosphorylatable amino acid (threonine) of five peptide substrates (R4, R22, R133, R134, and R135) was replaced with alanine. […] Ki values were obtained from the Dixon plot and Lineweaver–Burk plot. Inhibitor peptides were added into 25 µL of buffer (5 mM MOPS at pH 7.2, 2.5 mM beta-glycerophosphate, 1 mM EGTA, 4 mM MgCl2, 0.05 mM DTT, and 100 µM ATP) containing S6K substrate peptide and 1.25 µg/mL ROCK2.

For assay [2], the target named is T1, ROCK2. The assay can be described thus: Kinetic analysis of peptide substrate phosphorylation by ROCK2 (Lineweaver–Burk plot). As to the method:
The kinase activity of recombinant ROCK2 (Carna Biosciences, Kobe, Japan), ERK1 (Upstate, Millipore, Temecula, CA, USA), PKA (Promega, Madison, WI, USA), and PKCα (Sigma–Aldrich, St. Louis, MO, USA) for the peptide substrates was determined by measuring ^32P transfer from [γ-^32P]ATP into substrate peptides according to manufacturer recommendations. Phosphorylation reactions by ROCK2 were carried out in 25 µL of buffer (5 mM 3-(N-morpholino)propanesulfonic acid (MOPS) at pH 7.2, 2.5 mM beta-glycerophosphate, 1 mM ethylene glycol tetra-acetic acid (EGTA), 4 mM MgCl2, 0.05 mM dithiothreitol (DTT), and 100 µM adenosine triphosphate (ATP)) containing peptides and 1.25 µg/ml ROCK2. For PKCα, phosphorylation reactions were carried out in 25 µL of buffer (20 mM HEPES at pH 7.4, 10 mM MgCl2, 1 mM CaCl2, 100 µM ATP, 40 µg/mL phosphatidylserine, and 20 µg/mL diacylglycerol) containing peptides and 0.5 µg/mL PKCα. Phosphorylation reactions by PKA were carried out in 25 µL of buffer (50 mM HEPES at pH 7.4, 1 mM CaCl2, 10 mM MgCl2, 100 µM ATP) containing peptides and 1.6 µg/mL PKA. For ERK1, phosphorylation reactions were carried out in 25 µL of buffer (25 mM Tris-HCl at pH 7.5, 20 µM EGTA, 15 mM magnesium acetate, and 100 µM ATP) containing peptides and 0.5 µg/mL ERK1. For each experimental condition, values for control reactions lacking substrate peptides were subtracted as blanks. The assay mixture was incubated for 10 min at 25°C, and the reaction terminated by the addition of 5 µL of 30% trichloroacetic acid (TCA). The reaction mixture (24 µL) was spotted onto P-81 phosphocellulose membranes. The membranes were washed thrice with 5% TCA, dried with acetone, and the radioactivity of each membrane determined by liquid scintillation counting. Kinetic analyses of enzyme activity were determined using the Lineweaver–Burk plot. […]

Assay [3] addresses T2, PKCα (Homo sapiens, UniProt P17252).
T2 construct: purchased Sigma–Aldrich, St. Louis, MO, USA
Put plainly: Radiolabel assay using [γ-32P]ATP: phosphorylation of peptide substrates by PKCα. To be noted: Fig. 3, in words; for CPM for PKCα: 0.5 µg/mL PKCα, 100 µM ATP, HEPES pH 7.4, 10 min at 25°C. The procedure:
(§1) The kinase activity of recombinant ROCK2 (Carna Biosciences, Kobe, Japan), ERK1 (Upstate, Millipore, Temecula, CA, USA), PKA (Promega, Madison, WI, USA), and PKCα (Sigma–Aldrich, St. Louis, MO, USA) for the peptide substrates was determined by measuring ^32P transfer from [γ-^32P]ATP into substrate peptides according to manufacturer recommendations. Phosphorylation reactions by ROCK2 were carried out in 25 µL of buffer (5 mM 3-(N-morpholino)propanesulfonic acid (MOPS) at pH 7.2, 2.5 mM beta-glycerophosphate, 1 mM ethylene glycol tetra-acetic acid (EGTA), 4 mM MgCl2, 0.05 mM dithiothreitol (DTT), and 100 µM adenosine triphosphate (ATP)) containing peptides and 1.25 µg/ml ROCK2. For PKCα, phosphorylation reactions were carried out in 25 µL of buffer (20 mM HEPES at pH 7.4, 10 mM MgCl2, 1 mM CaCl2, 100 µM ATP, 40 µg/mL phosphatidylserine, and 20 µg/mL diacylglycerol) containing peptides and 0.5 µg/mL PKCα. Phosphorylation reactions by PKA were carried out in 25 µL of buffer (50 mM HEPES at pH 7.4, 1 mM CaCl2, 10 mM MgCl2, 100 µM ATP) containing peptides and 1.6 µg/mL PKA. For ERK1, phosphorylation reactions were carried out in 25 µL of buffer (25 mM Tris-HCl at pH 7.5, 20 µM EGTA, 15 mM magnesium acetate, and 100 µM ATP) containing peptides and 0.5 µg/mL ERK1. For each experimental condition, values for control reactions lacking substrate peptides were subtracted as blanks. The assay mixture was incubated for 10 min at 25°C, and the reaction terminated by the addition of 5 µL of 30% trichloroacetic acid (TCA). The reaction mixture (24 µL) was spotted onto P-81 phosphocellulose membranes. The membranes were washed thrice with 5% TCA, dried with acetone, and the radioactivity of each membrane determined by liquid scintillation counting. Kinetic analyses of enzyme activity were determined using the Lineweaver–Burk plot.

Assay [4] concerns the target T3, PKA (Bos taurus, UniProt P00517).
T3 construct: purchased Promega, Madison, WI, USA
The assay can be described thus: Radiolabel assay using [γ-32P]ATP: phosphorylation of peptide substrates by PKA. The note with it: 1.6 µg/mL PKA, 100 µM ATP, HEPES pH 7.4, 10 min at 25°C; Fig. 3, in words. As to the method: as §1

In assay [5] the target is T4, ERK1 (Homo sapiens, UniProt P27361).
T4 construct: purchased Upstate, Millipore, Temecula, CA, USA
T4 sequence (P27361 whole entry, species assumed): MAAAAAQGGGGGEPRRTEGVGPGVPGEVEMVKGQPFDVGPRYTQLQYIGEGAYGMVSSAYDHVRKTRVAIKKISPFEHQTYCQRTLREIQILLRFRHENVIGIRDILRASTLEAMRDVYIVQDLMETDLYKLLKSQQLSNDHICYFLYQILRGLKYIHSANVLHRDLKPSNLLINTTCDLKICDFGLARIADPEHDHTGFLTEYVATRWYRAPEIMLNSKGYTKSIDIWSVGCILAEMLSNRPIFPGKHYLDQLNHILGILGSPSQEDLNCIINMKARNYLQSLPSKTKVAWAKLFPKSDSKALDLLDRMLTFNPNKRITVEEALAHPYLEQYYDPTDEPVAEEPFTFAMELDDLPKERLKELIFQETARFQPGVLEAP
The assay can be described thus: Radiolabel assay using [γ-32P]ATP: phosphorylation of peptide substrates by ERK1. The note with it: 0.5 µg/mL ERK1, 100 µM ATP, Tris-HCl pH 7.5, 10 min at 25°C; Fig. 3, in words. As to the method: as §1

Entries after “also recorded” stand apart in the source; their conditions may differ. Where a SMILES comes first, the peptide text is derived from it.

T1 sequence (O75116 1-553 limits assumed): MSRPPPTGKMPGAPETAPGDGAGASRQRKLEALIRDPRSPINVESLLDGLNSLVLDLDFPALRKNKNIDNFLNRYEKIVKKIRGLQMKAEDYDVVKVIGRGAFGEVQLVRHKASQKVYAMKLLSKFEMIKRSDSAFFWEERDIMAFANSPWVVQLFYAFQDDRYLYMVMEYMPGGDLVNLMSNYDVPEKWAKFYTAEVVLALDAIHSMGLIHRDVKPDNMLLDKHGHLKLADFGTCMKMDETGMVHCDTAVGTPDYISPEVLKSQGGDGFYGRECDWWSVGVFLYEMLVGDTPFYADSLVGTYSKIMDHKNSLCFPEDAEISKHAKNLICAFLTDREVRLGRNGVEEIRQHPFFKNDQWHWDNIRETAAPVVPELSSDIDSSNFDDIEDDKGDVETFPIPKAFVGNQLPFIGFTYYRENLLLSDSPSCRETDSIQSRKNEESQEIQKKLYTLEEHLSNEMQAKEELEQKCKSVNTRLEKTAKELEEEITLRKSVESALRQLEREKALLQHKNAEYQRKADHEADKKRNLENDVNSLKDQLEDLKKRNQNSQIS

As to `CC[C@H](C)[C@H](NC(=O)[C@H](CCC(N)=O)NC(=O)[C@H](CCCNC(=N)N)NC(=O)[C@H](CC(C)C)NC(=O)[C@H](C)NC(=O)[C@H](CCCCN)NC(=O)[C@H](Cc1ccc(O)cc1)NC(=O)[C@H](CCCCN)NC(=O)[C@H](C)NC(=O)[C@@H](N)CCCNC(=N)N)C(=O)N[C@@H](CCCNC(=N)N)C(=O)O` [R4 with alanine instead of threonine] (H-RAKYKALRQIR-OH), in assay [1], the Ki (commonly a dissociation constant, usually derived from enzyme kinetics or from competition with a known ligand) turned out to be 86.6 µM.
In assay [1], `CSCC[C@H](NC(=O)[C@H](Cc1c[nH]c2ccccc12)NC(=O)[C@H](Cc1ccc(O)cc1)NC(=O)[C@@H]1CCCN1C(=O)[C@H](CC(N)=O)NC(=O)CNC(=O)[C@@H](NC(=O)[C@@H](NC(=O)[C@H](C)NC(=O)[C@H](Cc1ccc(O)cc1)NC(=O)[C@H](CCCNC(=N)N)NC(=O)[C@H](CCCCN)NC(=O)[C@H](CCCCN)NC(=O)[C@H](CCCNC(=N)N)NC(=O)[C@H](C)NC(=O)[C@@H]1CCCN1C(=O)[C@@H](N)CCCCN)C(C)C)C(C)C)C(=O)O` [R22 with alanine instead of threonine] (H-KPARKKRYAVVGNPYWM-OH) had a Ki of 11.6 µM.
As to `CSCC[C@H](NC(=O)[C@H](Cc1c[nH]c2ccccc12)NC(=O)[C@H](Cc1ccc(O)cc1)NC(=O)[C@@H]1CCCN1C(=O)[C@H](CC(N)=O)NC(=O)CNC(=O)[C@@H](NC(=O)[C@@H](NC(=O)[C@H](C)NC(=O)[C@H](Cc1ccc(O)cc1)NC(=O)[C@H](CCCNC(=N)N)NC(=O)[C@H](CCCCN)NC(=O)[C@H](CCCCN)NC(=O)[C@H](CCCNC(=N)N)NC(=O)[C@H](CC(=O)O)NC(=O)[C@H](CO)NC(=O)[C@@H](N)CCCCN)C(C)C)C(C)C)C(=O)O` [R133 with alanine instead of threonine] (H-KSDRKKRYAVVGNPYWM-OH; N-terminus and C-terminus assumed), the Ki in assay [1] was over 100 µM.
On the same count and under the same terms, the value for `CSCC[C@H](NC(=O)[C@H](Cc1c[nH]c2ccccc12)NC(=O)[C@H](Cc1ccc(O)cc1)NC(=O)[C@@H]1CCCN1C(=O)[C@H](CC(N)=O)NC(=O)CNC(=O)[C@@H](NC(=O)[C@@H](NC(=O)[C@H](C)NC(=O)[C@H](Cc1ccc(O)cc1)NC(=O)[C@H](CCCNC(=N)N)NC(=O)[C@H](CCCCN)NC(=O)[C@H](CCCCN)NC(=O)[C@H](CCCNC(=N)N)NC(=O)[C@H](C)NC(=O)[C@H](CO)NC(=O)[C@@H](N)CCCCN)C(C)C)C(C)C)C(=O)O` [R134 with alanine instead of threonine] (H-KSARKKRYAVVGNPYWM-OH) was 29.2 µM.
In the case of `CSCC[C@H](NC(=O)[C@H](Cc1c[nH]c2ccccc12)NC(=O)[C@H](Cc1ccc(O)cc1)NC(=O)[C@@H]1CCCN1C(=O)[C@H](CC(N)=O)NC(=O)CNC(=O)[C@@H](NC(=O)[C@@H](NC(=O)[C@H](C)NC(=O)[C@H](Cc1ccc(O)cc1)NC(=O)[C@H](CCCNC(=N)N)NC(=O)[C@H](CCCCN)NC(=O)[C@H](CCCCN)NC(=O)[C@H](CCCNC(=N)N)NC(=O)[C@H](CC(=O)O)NC(=O)[C@H](C)NC(=O)[C@@H](N)CCCCN)C(C)C)C(C)C)C(=O)O` [R135 with alanine instead of threonine] (H-KADRKKRYAVVGNPYWM-OH; N-terminus and C-terminus assumed), the Ki in assay [1] was over 100 µM.
As for “KADRKKRYTVVGNPYWM [R135, peptide substrate for ROCK2 …, origin LIMK2]”, in assay [2], the Km – broadly, the substrate concentration at which the rate is half of its maximum – came out at 3.2 µM and the Vmax (in general, the rate approached at saturating substrate) is reported as 8.6 pmol/min/mg. Further, the “CPM for ROCK2 compared with PKCα” value in assay [3] is recorded as “much higher CPM for ROCK2 than that of PKCα; also recorded: higher CPM levels for ROCK2 than the other enzymes”. For the same molecule, the “CPM for ROCK2 compared with PKA” value in assay [4] is reported as “higher CPM levels for ROCK2 than the other enzymes”. Moreover, the “CPM for ROCK2 compared with ERK1” value in assay [5] is on record as “higher CPM levels for ROCK2 than the other enzymes”.
Regarding “KPARKKRYTVVGNPYWM [R22, peptide substrate for ROCK2 …, origin LIM-kinase 1 (LIMK1)]”, in assay [2], the Michaelis-Menten constant (Km) was determined as 1.9 µM and the Vmax is given as 10.3 pmol/min/mg. For the same molecule, the “CPM for ROCK2 compared with PKCα” value in assay [3] was “much higher CPM for ROCK2 than that of PKCα; also recorded: higher CPM levels for ROCK2 than the other enzymes”. Also, the “CPM for ROCK2 compared with PKA” value in assay [4] was “higher CPM levels for ROCK2 than the other enzymes”. Also, the “CPM for ROCK2 compared with ERK1” value in assay [5] is reported as “higher CPM levels for ROCK2 than the other enzymes”.
For “KRRRLASLR [S6K, synthetic peptide S6K (…) used as a control for ROCK2, reference compound]”, in assay [2], the Km came to 3.1 µM and the Vmax is recorded as 23.1 pmol/min/mg.
As for “KSARKKRYTVVGNPYWM [R134, peptide substrate for ROCK2 …, origin LIMK2]”, in assay [2], the Km was found to be 3.3 µM and the Vmax was 14.9 pmol/min/mg. Further, in assay [3], the “CPM for PKCα” value is “high CPM”.
“KSDRKKRYTVVGNPYWM [R133, peptide substrate for ROCK2 …, origin LIMK2]”: in assay [2], the Km turned out to be 3.6 µM and the Vmax is 10.0 pmol/min/mg. Also, in assay [3], the “CPM for ROCK2 compared with PKCα” value was “much higher CPM for ROCK2 than that of PKCα; also recorded: higher CPM levels for ROCK2 than the other enzymes”. Moreover, in assay [4], the “CPM for ROCK2 compared with PKA” value was “higher CPM levels for ROCK2 than the other enzymes”. In addition, in assay [5], the “CPM for ROCK2 compared with ERK1” value is recorded as “higher CPM levels for ROCK2 than the other enzymes”.
Consider “RAKYKTLRQIR [R4, peptide substrate for ROCK2 …, origin ERM family (Ezrin/ Radixin/ Moesin)]”, for which, in assay [2], the Km came out at 1.7 µM and the Vmax is 14.2 pmol/min/mg. For the same molecule, in assay [3], the “CPM for PKCα” value is reported as “high CPM”.
